Results published in PubChem BioAssay (NCI).
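Test compounds were applied to cells in 96-well plates for 48 hours at 5 doses. Abbreviation: GI50, concentration required for 50% inhibition of growth. The concentration for full growth arrest is given as TGI.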

Assays:
Assay in all cases: DTP human tumour cell line panel, 48 h
786-0 renal = tested on: 786-0 renal
A498 renal = tested on: A498 renal
ACHN renal = tested on: ACHN renal
CAKI-1 renal = tested on: CAKI-1 renal
CCRF-CEM leukemia = tested on: CCRF-CEM leukemia
COLO 205 colon = tested on: COLO 205 colon
DLD-1 colon = tested on: DLD-1 colon
EKVX NSCLC = tested on: EKVX NSCLC
HCC-2998 colon = tested on: HCC-2998 colon
HCT-15 colon = tested on: HCT-15 colon
HL-60(TB) leukemia = tested on: HL-60(TB) leukemia
HOP-18 NSCLC = tested on: HOP-18 NSCLC
HOP-62 NSCLC = tested on: HOP-62 NSCLC
HOP-92 NSCLC = tested on: HOP-92 NSCLC
HT29 colon = tested on: HT29 colon
IGROV1 ovarian = tested on: IGROV1 ovarian
K-562 leukemia = tested on: K-562 leukemia
KM12 colon = tested on: KM12 colon
KM20L2 colon = tested on: KM20L2 colon
LOX IMVI melanoma = tested on: LOX IMVI melanoma
LXFL 529 NSCLC = tested on: LXFL 529 NSCLC
M14 melanoma = tested on: M14 melanoma
MALME-3M melanoma = tested on: MALME-3M melanoma
MOLT-4 leukemia = tested on: MOLT-4 leukemia
NCI-H226 lung = tested on: NCI-H226 lung
NCI-H23 lung = tested on: NCI-H23 lung
NCI-H460 lung = tested on: NCI-H460 lung
NCI-H522 lung = tested on: NCI-H522 lung
OVCAR-3 ovarian = tested on: OVCAR-3 ovarian
OVCAR-4 ovarian = tested on: OVCAR-4 ovarian
OVCAR-5 ovarian = tested on: OVCAR-5 ovarian
OVCAR-8 ovarian = tested on: OVCAR-8 ovarian
RPMI-8226 leukemia = tested on: RPMI-8226 leukemia
SF-268 CNS = tested on: SF-268 CNS
SF-295 CNS = tested on: SF-295 CNS
SF-539 CNS = tested on: SF-539 CNS
SK-MEL-2 melanoma = tested on: SK-MEL-2 melanoma
SK-MEL-28 melanoma = tested on: SK-MEL-28 melanoma
SK-MEL-5 melanoma = tested on: SK-MEL-5 melanoma
SK-OV-3 ovarian = tested on: SK-OV-3 ovarian
SN12C renal = tested on: SN12C renal
SNB-19 CNS = tested on: SNB-19 CNS
SNB-75 CNS = tested on: SNB-75 CNS
SW-620 colon = tested on: SW-620 colon
U251 CNS = tested on: U251 CNS
UACC-257 melanoma = tested on: UACC-257 melanoma
UACC-62 melanoma = tested on: UACC-62 melanoma
UO-31 renal = tested on: UO-31 renal
M19-MEL melanoma = tested on: M19-MEL melanoma
SNB-78 CNS = tested on: SNB-78 CNS
TK-10 renal = tested on: TK-10 renal

CC(=O)[CH-]C(=O)c1ccccc1.CC(=O)[CH-]C(=O)c1ccccc1.Cl.[O-]c1ccnc2ccccc12.[O-]c1ccnc2ccccc12.[Ti+4]
GI50 (786-0 renal): > 100 µM | TGI (786-0 renal): > 100 µM | GI50 (A498 renal): > 100 µM | TGI (A498 renal): > 100 µM | GI50 (ACHN renal): > 100 µM | TGI (ACHN renal): > 100 µM | GI50 (CAKI-1 renal): 48.7 µM | TGI (CAKI-1 renal): > 100 µM | GI50 (CCRF-CEM leukemia): > 100 µM | TGI (CCRF-CEM leukemia): > 100 µM | GI50 (COLO 205 colon): > 100 µM | TGI (COLO 205 colon): > 100 µM | GI50 (DLD-1 colon): > 100 µM | TGI (DLD-1 colon): > 100 µM | GI50 (EKVX NSCLC): > 100 µM | TGI (EKVX NSCLC): > 100 µM | GI50 (HCC-2998 colon): > 100 µM | TGI (HCC-2998 colon): > 100 µM | GI50 (HCT-15 colon): > 100 µM | TGI (HCT-15 colon): > 100 µM | GI50 (HL-60(TB) leukemia): > 100 µM | TGI (HL-60(TB) leukemia): > 100 µM | GI50 (HOP-18 NSCLC): > 100 µM | TGI (HOP-18 NSCLC): > 100 µM | GI50 (HOP-62 NSCLC): > 100 µM | TGI (HOP-62 NSCLC): > 100 µM | GI50 (HOP-92 NSCLC): > 100 µM | TGI (HOP-92 NSCLC): > 100 µM | GI50 (HT29 colon): > 100 µM | TGI (HT29 colon): > 100 µM | GI50 (IGROV1 ovarian): > 100 µM | TGI (IGROV1 ovarian): > 100 µM | GI50 (K-562 leukemia): > 100 µM | TGI (K-562 leukemia): > 100 µM | GI50 (KM12 colon): > 100 µM | TGI (KM12 colon): > 100 µM | GI50 (KM20L2 colon): > 100 µM | TGI (KM20L2 colon): > 100 µM | GI50 (LOX IMVI melanoma): > 100 µM | TGI (LOX IMVI melanoma): > 100 µM | GI50 (LXFL 529 NSCLC): > 100 µM | TGI (LXFL 529 NSCLC): > 100 µM | GI50 (M14 melanoma): > 100 µM | TGI (M14 melanoma): > 100 µM | GI50 (MALME-3M melanoma): > 100 µM | TGI (MALME-3M melanoma): > 100 µM | GI50 (MOLT-4 leukemia): > 100 µM | TGI (MOLT-4 leukemia): > 100 µM | GI50 (NCI-H226 lung): > 100 µM | TGI (NCI-H226 lung): > 100 µM | GI50 (NCI-H23 lung): > 100 µM | TGI (NCI-H23 lung): > 100 µM | GI50 (NCI-H460 lung): > 100 µM | TGI (NCI-H460 lung): > 100 µM | GI50 (NCI-H522 lung): > 100 µM | TGI (NCI-H522 lung): > 100 µM | GI50 (OVCAR-3 ovarian): > 100 µM | TGI (OVCAR-3 ovarian): > 100 µM | GI50 (OVCAR-4 ovarian): > 100 µM | TGI (OVCAR-4 ovarian): > 100 µM | GI50 (OVCAR-5 ovarian): > 100 µM | TGI (OVCAR-5 ovarian): > 100 µM | GI50 (OVCAR-8 ovarian): > 100 µM | TGI (OVCAR-8 ovarian): > 100 µM | GI50 (RPMI-8226 leukemia): > 100 µM | TGI (RPMI-8226 leukemia): > 100 µM | GI50 (SF-268 CNS): > 100 µM | TGI (SF-268 CNS): > 100 µM | GI50 (SF-295 CNS): > 100 µM | TGI (SF-295 CNS): > 100 µM | GI50 (SF-539 CNS): > 100 µM | TGI (SF-539 CNS): > 100 µM | GI50 (SK-MEL-2 melanoma): > 100 µM | TGI (SK-MEL-2 melanoma): > 100 µM | GI50 (SK-MEL-28 melanoma): > 100 µM | TGI (SK-MEL-28 melanoma): > 100 µM | GI50 (SK-MEL-5 melanoma): > 100 µM | TGI (SK-MEL-5 melanoma): > 100 µM | GI50 (SK-OV-3 ovarian): > 100 µM | TGI (SK-OV-3 ovarian): > 100 µM | GI50 (SN12C renal): > 100 µM | TGI (SN12C renal): > 100 µM | GI50 (SNB-19 CNS): > 100 µM | TGI (SNB-19 CNS): > 100 µM | GI50 (SNB-75 CNS): > 100 µM | TGI (SNB-75 CNS): > 100 µM | GI50 (SW-620 colon): > 100 µM | TGI (SW-620 colon): > 100 µM | GI50 (U251 CNS): > 100 µM | TGI (U251 CNS): > 100 µM | GI50 (UACC-257 melanoma): > 100 µM | TGI (UACC-257 melanoma): > 100 µM | GI50 (UACC-62 melanoma): > 100 µM | TGI (UACC-62 melanoma): > 100 µM | GI50 (UO-31 renal): > 100 µM | TGI (UO-31 renal): > 100 µM

Cc1cc(=O)oc2c1cc1ccc3cccc4ccc2c1c34
TGI (A498 renal): > 100 µM | TGI (ACHN renal): > 100 µM | TGI (CAKI-1 renal): > 100 µM | TGI (CCRF-CEM leukemia): > 100 µM | TGI (COLO 205 colon): > 100 µM | TGI (DLD-1 colon): > 100 µM | TGI (EKVX NSCLC): > 100 µM | TGI (HCT-15 colon): > 100 µM | TGI (HL-60(TB) leukemia): > 100 µM | TGI (HOP-18 NSCLC): > 100 µM | TGI (HOP-92 NSCLC): > 100 µM | TGI (HT29 colon): > 100 µM | TGI (IGROV1 ovarian): > 100 µM | TGI (K-562 leukemia): > 100 µM | TGI (KM20L2 colon): > 100 µM | TGI (LOX IMVI melanoma): > 100 µM | TGI (LXFL 529 NSCLC): > 100 µM | TGI (M14 melanoma): > 100 µM | TGI (M19-MEL melanoma): > 100 µM | TGI (MALME-3M melanoma): > 100 µM | TGI (MOLT-4 leukemia): > 100 µM | TGI (NCI-H226 lung): > 100 µM | TGI (NCI-H23 lung): > 100 µM | TGI (NCI-H460 lung): > 100 µM | TGI (NCI-H522 lung): > 100 µM | TGI (OVCAR-3 ovarian): > 100 µM | TGI (OVCAR-8 ovarian): > 100 µM | TGI (RPMI-8226 leukemia): > 100 µM | TGI (SF-268 CNS): > 100 µM | TGI (SF-295 CNS): > 100 µM | TGI (SF-539 CNS): > 100 µM | TGI (SK-MEL-2 melanoma): > 100 µM | TGI (SK-MEL-28 melanoma): > 100 µM | TGI (SK-MEL-5 melanoma): > 100 µM | TGI (SK-OV-3 ovarian): > 100 µM | TGI (SN12C renal): > 100 µM | TGI (SNB-19 CNS): > 100 µM | TGI (SNB-75 CNS): 98.4 µM | TGI (SNB-78 CNS): > 100 µM | TGI (SW-620 colon): > 100 µM | TGI (TK-10 renal): > 100 µM | TGI (U251 CNS): > 100 µM | TGI (UACC-62 melanoma): > 100 µM | TGI (UO-31 renal): > 100 µM
